In ChEMBL document CHEMBL5465560, “Selectivity Literature for EUbOPEN Chemogenomic Library” (2024) one finds % of inhibition, % of control and dTM data, which are given here for 7 molecules.

Assay [1] has as its system Dual specificity mitogen-activated protein kinase kinase 6 (Homo sapiens), P52564 [S207E,T211E]. Kind of assay: (§1) Selectivity interaction (LanthaScreen Eu Kinase Binding Assay) EUB0001632a MAP2K6. The note with it: at 10 µM.
In assay [2] the target is T1, Dual specificity mitogen-activated protein kinase kinase 6 (Homo sapiens) (UniProt P52564).
T1 sequence (whole entry): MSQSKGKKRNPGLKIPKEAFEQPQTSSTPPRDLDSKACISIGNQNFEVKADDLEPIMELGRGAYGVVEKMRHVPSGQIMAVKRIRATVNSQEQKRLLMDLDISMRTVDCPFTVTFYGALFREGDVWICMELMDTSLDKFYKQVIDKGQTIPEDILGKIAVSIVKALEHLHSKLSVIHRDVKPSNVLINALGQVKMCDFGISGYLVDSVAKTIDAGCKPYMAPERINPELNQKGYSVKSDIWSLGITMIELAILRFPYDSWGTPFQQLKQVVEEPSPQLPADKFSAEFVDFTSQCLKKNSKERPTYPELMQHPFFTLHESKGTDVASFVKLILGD
The description is as §1. To be noted: at 10 µM.

Assay [3] has as its target Mitogen-activated protein kinase 9 (Homo sapiens, UniProt P45984). Kind of assay: Selectivity interaction (Kinase panel (Z-LYTE Assay)) EUB0001632a MAPK9. To be noted: at 10 µM.
Assay [4] has as its target T2, Phosphatidylinositol 5-phosphate 4-kinase type-2 alpha (Homo sapiens) (UniProt P48426).
T2 sequence (whole entry): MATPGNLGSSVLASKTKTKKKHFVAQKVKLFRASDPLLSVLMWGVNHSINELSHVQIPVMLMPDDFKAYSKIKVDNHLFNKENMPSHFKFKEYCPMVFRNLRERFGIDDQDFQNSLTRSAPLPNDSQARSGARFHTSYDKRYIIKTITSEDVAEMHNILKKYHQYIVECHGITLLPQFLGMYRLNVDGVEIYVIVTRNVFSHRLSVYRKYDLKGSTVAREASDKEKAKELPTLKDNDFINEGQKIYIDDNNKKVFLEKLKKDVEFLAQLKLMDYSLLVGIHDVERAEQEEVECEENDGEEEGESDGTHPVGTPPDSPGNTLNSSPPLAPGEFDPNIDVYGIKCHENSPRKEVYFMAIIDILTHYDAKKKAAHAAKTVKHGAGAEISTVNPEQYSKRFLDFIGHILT
Kind of assay: Selectivity interaction (ActivX KiNativ screen (ex vivo kinase selectivity in human PBMCs)) EUB0001619a PIP4K2A. Type of assay: cell-based. The note with it: PBMC, at 1 µM.

Assay [5] deals with T3, Lymphokine-activated killer T-cell-originated protein kinase (Homo sapiens) (UniProt Q96KB5).
T3 sequence (whole entry): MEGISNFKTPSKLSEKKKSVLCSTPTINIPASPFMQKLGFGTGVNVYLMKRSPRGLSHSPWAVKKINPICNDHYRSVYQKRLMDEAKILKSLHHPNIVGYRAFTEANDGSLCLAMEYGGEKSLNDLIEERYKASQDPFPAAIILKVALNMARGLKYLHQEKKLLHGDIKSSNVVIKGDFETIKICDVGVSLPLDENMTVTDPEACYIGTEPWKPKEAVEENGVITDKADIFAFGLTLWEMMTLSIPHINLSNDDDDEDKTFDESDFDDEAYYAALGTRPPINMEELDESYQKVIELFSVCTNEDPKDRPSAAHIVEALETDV
Nature of the assay: Selectivity interaction (Kinase panel (literature)) EUB0001199aCl PBK. The note with it: at 1 µM.

Assay [6] addresses T4, Serine/threonine-protein kinase tousled-like 1 (Homo sapiens) (UniProt Q9UKI8).
T4 sequence (whole entry): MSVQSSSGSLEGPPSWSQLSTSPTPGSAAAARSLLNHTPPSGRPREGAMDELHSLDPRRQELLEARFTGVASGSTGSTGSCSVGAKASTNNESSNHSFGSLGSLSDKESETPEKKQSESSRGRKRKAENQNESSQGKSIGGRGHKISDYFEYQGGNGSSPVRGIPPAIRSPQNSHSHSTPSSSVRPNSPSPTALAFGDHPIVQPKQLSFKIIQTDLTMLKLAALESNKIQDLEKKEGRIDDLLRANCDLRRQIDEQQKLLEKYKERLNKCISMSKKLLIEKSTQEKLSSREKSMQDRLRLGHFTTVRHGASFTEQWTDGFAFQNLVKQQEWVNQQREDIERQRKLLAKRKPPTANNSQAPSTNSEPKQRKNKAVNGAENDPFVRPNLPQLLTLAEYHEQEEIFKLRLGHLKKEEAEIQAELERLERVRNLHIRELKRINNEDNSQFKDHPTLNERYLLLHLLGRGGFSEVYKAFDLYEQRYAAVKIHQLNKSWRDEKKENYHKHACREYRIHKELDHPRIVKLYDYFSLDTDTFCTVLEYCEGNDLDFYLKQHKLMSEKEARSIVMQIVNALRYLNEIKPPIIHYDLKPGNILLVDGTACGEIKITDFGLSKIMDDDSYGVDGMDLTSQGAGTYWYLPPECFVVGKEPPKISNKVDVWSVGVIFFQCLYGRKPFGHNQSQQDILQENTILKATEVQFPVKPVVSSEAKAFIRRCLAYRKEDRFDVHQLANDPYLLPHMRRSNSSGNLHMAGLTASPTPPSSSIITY
Nature of the assay: Selectivity interaction (ActivX KiNativ screen (kinase selectivity in THP-1 cell lysates)) EUB0000639a TLK1. Type of assay: subcellular. To be noted: lysate.

In assay [7] the target is Tyrosine-protein kinase Fer (Homo sapiens) (UniProt P16591). Kind of assay: Selectivity interaction (ActivX KiNativ screen (kinase selectivity in THP-1 cell lysates)) EUB0000639a FER. Type of assay: subcellular. To be noted: lysate, at 0.2 µM.
Sequence of Tyrosine-protein kinase Fer (Homo sapiens) (P16591 whole entry, looked up): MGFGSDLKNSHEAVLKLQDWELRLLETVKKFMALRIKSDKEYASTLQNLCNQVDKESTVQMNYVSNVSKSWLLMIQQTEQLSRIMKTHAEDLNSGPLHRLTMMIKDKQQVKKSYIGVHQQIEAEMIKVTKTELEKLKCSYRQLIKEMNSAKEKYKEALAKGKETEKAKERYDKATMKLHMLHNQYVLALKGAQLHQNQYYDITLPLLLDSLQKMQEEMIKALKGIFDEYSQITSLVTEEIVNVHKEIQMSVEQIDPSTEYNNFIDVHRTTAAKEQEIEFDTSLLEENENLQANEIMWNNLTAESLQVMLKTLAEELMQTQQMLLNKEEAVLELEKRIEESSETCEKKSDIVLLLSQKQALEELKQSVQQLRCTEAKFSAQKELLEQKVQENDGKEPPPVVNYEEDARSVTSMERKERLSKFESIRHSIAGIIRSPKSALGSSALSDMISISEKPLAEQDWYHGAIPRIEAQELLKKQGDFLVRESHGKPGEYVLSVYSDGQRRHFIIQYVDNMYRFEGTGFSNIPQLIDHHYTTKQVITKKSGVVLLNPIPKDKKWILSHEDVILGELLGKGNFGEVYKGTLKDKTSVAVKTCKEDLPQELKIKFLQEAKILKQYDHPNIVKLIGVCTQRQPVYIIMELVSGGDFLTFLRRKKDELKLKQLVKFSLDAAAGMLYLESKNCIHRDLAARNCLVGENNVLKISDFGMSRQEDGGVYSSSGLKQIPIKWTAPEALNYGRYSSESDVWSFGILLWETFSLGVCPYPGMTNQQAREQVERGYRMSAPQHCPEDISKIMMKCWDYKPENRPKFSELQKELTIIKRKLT
Assay [8] addresses T5, Interleukin-1 receptor-associated kinase 4 (Homo sapiens) (UniProt Q9NWZ3).
T5 sequence (whole entry): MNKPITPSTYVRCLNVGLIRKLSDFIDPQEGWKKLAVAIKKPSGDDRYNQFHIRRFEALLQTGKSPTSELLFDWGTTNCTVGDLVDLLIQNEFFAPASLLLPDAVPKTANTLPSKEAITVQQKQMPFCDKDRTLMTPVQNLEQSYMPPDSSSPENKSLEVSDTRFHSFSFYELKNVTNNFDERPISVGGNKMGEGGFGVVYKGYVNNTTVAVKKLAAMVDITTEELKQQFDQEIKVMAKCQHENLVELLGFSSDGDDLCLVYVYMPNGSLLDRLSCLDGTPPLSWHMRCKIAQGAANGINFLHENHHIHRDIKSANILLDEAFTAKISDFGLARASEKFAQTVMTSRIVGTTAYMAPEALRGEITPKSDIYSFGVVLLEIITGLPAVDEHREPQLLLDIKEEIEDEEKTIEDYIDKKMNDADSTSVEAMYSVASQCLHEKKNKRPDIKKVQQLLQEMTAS
Nature of the assay: Selectivity interaction (KinomeScan (DiscoverX)) EUB0000695a IRAK4. The note with it: at 100 nM.

The target of assay [9] is Nucleosome-remodeling factor subunit BPTF (Homo sapiens, UniProt Q12830). Kind of assay: Selectivity interaction (Human bromodomain panel (DSF assay)) EUB0000233b BPTF.
The target in assay [10] is Mitogen-activated protein kinase 4 (Homo sapiens) (UniProt P31152). Nature of the assay: Selectivity interaction (KinomeScan (DiscoverX)) EUB0000045b MAPK4.
Sequence of Mitogen-activated protein kinase 4 (Homo sapiens) (P31152 whole entry): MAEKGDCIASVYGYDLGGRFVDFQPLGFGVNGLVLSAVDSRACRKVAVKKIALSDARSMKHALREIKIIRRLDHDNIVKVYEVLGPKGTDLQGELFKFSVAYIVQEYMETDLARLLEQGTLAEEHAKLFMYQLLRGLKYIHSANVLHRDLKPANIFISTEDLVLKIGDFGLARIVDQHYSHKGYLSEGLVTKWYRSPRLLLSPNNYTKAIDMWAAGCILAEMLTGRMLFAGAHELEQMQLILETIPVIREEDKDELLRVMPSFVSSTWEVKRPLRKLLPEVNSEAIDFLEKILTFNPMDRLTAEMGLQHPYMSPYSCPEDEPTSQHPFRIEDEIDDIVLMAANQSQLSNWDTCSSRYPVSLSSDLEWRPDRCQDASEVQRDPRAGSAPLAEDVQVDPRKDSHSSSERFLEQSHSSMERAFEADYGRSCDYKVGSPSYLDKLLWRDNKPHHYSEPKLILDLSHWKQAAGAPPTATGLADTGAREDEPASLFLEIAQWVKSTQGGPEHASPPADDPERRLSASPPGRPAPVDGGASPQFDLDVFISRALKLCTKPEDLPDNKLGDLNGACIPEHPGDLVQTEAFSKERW

Sequence of Mitogen-activated protein kinase 9 (P45984 whole entry, looked up): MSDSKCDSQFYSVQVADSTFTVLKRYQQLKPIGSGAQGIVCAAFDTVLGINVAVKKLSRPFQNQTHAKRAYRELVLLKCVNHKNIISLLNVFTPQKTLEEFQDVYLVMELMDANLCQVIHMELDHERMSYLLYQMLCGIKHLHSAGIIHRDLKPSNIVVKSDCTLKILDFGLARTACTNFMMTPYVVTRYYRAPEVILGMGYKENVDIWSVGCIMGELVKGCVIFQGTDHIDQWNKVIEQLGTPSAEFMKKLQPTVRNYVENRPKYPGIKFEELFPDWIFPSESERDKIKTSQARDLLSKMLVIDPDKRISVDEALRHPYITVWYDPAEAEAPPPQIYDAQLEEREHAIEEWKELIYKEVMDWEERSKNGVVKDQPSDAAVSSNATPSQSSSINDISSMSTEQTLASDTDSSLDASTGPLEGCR
Sequence of Dual specificity mitogen-activated protein kinase kinase 6 (Homo sapiens), P52564 [S207E,T211E] (P52564 whole entry S207E/T211E): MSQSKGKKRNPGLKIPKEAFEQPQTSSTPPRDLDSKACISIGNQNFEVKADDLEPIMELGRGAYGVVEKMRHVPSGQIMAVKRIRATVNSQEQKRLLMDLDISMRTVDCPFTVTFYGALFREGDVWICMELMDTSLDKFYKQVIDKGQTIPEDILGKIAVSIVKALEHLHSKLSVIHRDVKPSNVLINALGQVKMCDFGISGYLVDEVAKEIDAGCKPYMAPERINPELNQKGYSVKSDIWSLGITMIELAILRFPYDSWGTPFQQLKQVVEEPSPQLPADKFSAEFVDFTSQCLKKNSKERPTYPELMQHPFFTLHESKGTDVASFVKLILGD

For `Cn1cc(-n2cnc3c(NCc4nc5cc(Cl)c(Cl)cc5[nH]4)nc(N4CCOCC4)nc32)cn1`, the % of inhibition was -8.6% in assay [1] and -35% in assay [2]. The molecule further came in with a % of control in assay [3] of 5.25%.
As for `N#Cc1cccc(-c2c[nH]c3ncnc(N4CCOCC4)c23)c1`, the % of inhibition in assay [4] is 2%.
Regarding `CN1Cc2nccc(-c3cn(C)nc3-c3ccc(F)cc3)c2C1=O`, the % of inhibition in assay [5] was -3%.
With `CC[C@@H]1[C@H](F)C(=O)N[C@@H]1COc1nccc2cc(C(N)=O)c(OC)cc12` [ZIMLOVISERTIB], the % of inhibition in assay [6] (at 0.01 µM) was 10.2%; in assay [6] (at 0.04 µM), 21.8%; in assay [6] (at 0.2 µM), 4.8%; in assay [6] (at 1 µM), 54%; in [6] (at 5 µM) it was 62.2%; in assay [7], -7.1%.
Turning to `Cc1cc(F)c(C(=O)Nc2cccc(-c3nncn3C(C)C)n2)cc1-n1cnc(C2CC2)c1`, in [8], the % of control was determined as 85%.
In turn, `CN(C)CCCOc1ccc(-c2cc(NCCCn3cccn3)nc(S(C)(=O)=O)n2)cc1` showed a dTM in [9] of 3.8 K.
Turning to `C=CC(=O)Nc1cc(-n2c(=O)ccc3cnc4ccc(-c5ccc(NS(C)(=O)=O)cc5)cc4c32)ccc1C`, the % of control in assay [10] (at 1 µM) was 91%; in assay [10] (at 10 µM), 100%.
